Data as given in paper PMC3429506, “Screening for Novel LRRK2 Inhibitors Using a High-Throughput TR-FRET Cellular Assay for LRRK2 Ser935 Phosphorylation” (PLoS ONE, 2012).

Columns and labels:
in vitro = details: human
LRRK2 G2019S [1] = target: T1, LRRK2 G2019S (Homo sapiens, UniProt Q5S007, G2019S); assay: In vitro biochemical LRRK2 TR-FRET activity assay
Experimental: The Biochemical LRRK2 TR-FRET activity assay was performed according to the manufacture recommended assay protocol (Life Technologies). […] After incubation at room temperature for 1 hour, the kinase reactions were stopped by addition of 10 µL of 20 mM EDTA and 4 nM Tb-anti-pERM (pLRRKtide) antibody in TR-FRET dilution buffer (Life Technologies). After a 30 minute incubation at room temperature, TR-FRET measurements were obtained on a BMG PHERAstar plate reader using LanthaScreen® filters and settings. A 16 point, 2-fold dilution series of each compound was tested in triplicate at each concentration and assays were also performed in triplicate.

LRRK2 G2019S [2] = target: T1, LRRK2 G2019S; assay: TR-FRET cellular assay for LRRK2 Ser935 phosphorylation, U-2 OS cells, BacMam LRRK2-GFP G2019S; assay type: cell-based; design: This high-throughput assay utilizes cells expressing full-length human LRRK2 with a C-terminal GFP tag (LRRK2-GFP); host or cells: U-2 OS, SH-SY5Y, HEK293T cells or human neural stem cells transduced with BacMam; details: G2019S, +/- SD, three independent experiments, * = partial inhibition, read-out: IC50, TR-FRET cell-based assay for Ser935 phosphorylation of LRRK2
Experimental: (§1) U-2 OS cells are maintained in growth medium (McCoy’s 5A supplemented with 10% dialyzed FBS (dFBS), 10 mM HEPES, 0.1 mM NEAA, 1 mM Sodium Pyruvate, and 100 U/mL Penicillin/100 µg/mL Streptomycin). HEK293T cells are maintained in DMEM with 10% dFBS, 10 mM HEPES, 0.1 mM NEAA and 100 U/mL Penicillin/100 µg/mL Streptomycin. SH-SY5Y cells are maintained in DMEM/F-12 medium supplemented with 10% dFBS and 100 U/mL Penicillin/100 µg/mL Streptomycin. […] GIBCO® human neural stem cells (hNSCs) were propagated as an adherent culture in StemPro® NSC SFM according to the manufacturer’s recommended protocol (Life Technologies). For BacMam transduction of U-2 OS and HEK293T, cells were harvested, mixed with various amounts of BacMam LRRK2-GFP reagent (v/v) and plated onto 6-well plates. […] Cells were assayed in 384-well format (∼20,000 cells/well) 48 hours post-transduction as above.
(§2) Transduced cells in the 384-well assay plate were incubated with indicated inhibitors (5X, 5 µL/well) for 60 to 90 minutes. During this time, 6 X lysis buffer (Life Technologies) was supplemented with 30 nM Tb-labeled anti-LRRK2 pSer935 antibody and both protease and phosphatase inhibitor cocktails (Sigma). The complete 6 X lysis buffer was added to each well (5 µL/well) and the plates were incubated at room temperature in the dark for 2 hours. […] A sigmoidal dose-response equation with varying slope was used to fit the data and generate IC50 values. Z′-factor values were calculated as: Z′-factor = 1 - [(3 × stdevno virus +3 × stdevmaxvirus)/(avgmaxvirus – avgno-virus)]. The IC50 values reported in Table 1 are the averaged numbers from three independent experiments.

LRRK2 wild-type [3] = target: T2, LRRK2 wild-type (Homo sapiens, UniProt Q5S007); assay: TR-FRET cellular assay for LRRK2 Ser935 phosphorylation, HEK293T cells, BacMam LRRK2-GFP wild-type; design: This high-throughput assay utilizes cells expressing full-length human LRRK2 with a C-terminal GFP tag (LRRK2-GFP); host or cells: HEK293T cells transduced with BacMam; details: WT, +/- SD, three independent experiments, * = partial inhibition, read-out: IC50, TR-FRET cell-based assay for Ser935 phosphorylation of LRRK2
T2 sequence (Q5S007 whole entry): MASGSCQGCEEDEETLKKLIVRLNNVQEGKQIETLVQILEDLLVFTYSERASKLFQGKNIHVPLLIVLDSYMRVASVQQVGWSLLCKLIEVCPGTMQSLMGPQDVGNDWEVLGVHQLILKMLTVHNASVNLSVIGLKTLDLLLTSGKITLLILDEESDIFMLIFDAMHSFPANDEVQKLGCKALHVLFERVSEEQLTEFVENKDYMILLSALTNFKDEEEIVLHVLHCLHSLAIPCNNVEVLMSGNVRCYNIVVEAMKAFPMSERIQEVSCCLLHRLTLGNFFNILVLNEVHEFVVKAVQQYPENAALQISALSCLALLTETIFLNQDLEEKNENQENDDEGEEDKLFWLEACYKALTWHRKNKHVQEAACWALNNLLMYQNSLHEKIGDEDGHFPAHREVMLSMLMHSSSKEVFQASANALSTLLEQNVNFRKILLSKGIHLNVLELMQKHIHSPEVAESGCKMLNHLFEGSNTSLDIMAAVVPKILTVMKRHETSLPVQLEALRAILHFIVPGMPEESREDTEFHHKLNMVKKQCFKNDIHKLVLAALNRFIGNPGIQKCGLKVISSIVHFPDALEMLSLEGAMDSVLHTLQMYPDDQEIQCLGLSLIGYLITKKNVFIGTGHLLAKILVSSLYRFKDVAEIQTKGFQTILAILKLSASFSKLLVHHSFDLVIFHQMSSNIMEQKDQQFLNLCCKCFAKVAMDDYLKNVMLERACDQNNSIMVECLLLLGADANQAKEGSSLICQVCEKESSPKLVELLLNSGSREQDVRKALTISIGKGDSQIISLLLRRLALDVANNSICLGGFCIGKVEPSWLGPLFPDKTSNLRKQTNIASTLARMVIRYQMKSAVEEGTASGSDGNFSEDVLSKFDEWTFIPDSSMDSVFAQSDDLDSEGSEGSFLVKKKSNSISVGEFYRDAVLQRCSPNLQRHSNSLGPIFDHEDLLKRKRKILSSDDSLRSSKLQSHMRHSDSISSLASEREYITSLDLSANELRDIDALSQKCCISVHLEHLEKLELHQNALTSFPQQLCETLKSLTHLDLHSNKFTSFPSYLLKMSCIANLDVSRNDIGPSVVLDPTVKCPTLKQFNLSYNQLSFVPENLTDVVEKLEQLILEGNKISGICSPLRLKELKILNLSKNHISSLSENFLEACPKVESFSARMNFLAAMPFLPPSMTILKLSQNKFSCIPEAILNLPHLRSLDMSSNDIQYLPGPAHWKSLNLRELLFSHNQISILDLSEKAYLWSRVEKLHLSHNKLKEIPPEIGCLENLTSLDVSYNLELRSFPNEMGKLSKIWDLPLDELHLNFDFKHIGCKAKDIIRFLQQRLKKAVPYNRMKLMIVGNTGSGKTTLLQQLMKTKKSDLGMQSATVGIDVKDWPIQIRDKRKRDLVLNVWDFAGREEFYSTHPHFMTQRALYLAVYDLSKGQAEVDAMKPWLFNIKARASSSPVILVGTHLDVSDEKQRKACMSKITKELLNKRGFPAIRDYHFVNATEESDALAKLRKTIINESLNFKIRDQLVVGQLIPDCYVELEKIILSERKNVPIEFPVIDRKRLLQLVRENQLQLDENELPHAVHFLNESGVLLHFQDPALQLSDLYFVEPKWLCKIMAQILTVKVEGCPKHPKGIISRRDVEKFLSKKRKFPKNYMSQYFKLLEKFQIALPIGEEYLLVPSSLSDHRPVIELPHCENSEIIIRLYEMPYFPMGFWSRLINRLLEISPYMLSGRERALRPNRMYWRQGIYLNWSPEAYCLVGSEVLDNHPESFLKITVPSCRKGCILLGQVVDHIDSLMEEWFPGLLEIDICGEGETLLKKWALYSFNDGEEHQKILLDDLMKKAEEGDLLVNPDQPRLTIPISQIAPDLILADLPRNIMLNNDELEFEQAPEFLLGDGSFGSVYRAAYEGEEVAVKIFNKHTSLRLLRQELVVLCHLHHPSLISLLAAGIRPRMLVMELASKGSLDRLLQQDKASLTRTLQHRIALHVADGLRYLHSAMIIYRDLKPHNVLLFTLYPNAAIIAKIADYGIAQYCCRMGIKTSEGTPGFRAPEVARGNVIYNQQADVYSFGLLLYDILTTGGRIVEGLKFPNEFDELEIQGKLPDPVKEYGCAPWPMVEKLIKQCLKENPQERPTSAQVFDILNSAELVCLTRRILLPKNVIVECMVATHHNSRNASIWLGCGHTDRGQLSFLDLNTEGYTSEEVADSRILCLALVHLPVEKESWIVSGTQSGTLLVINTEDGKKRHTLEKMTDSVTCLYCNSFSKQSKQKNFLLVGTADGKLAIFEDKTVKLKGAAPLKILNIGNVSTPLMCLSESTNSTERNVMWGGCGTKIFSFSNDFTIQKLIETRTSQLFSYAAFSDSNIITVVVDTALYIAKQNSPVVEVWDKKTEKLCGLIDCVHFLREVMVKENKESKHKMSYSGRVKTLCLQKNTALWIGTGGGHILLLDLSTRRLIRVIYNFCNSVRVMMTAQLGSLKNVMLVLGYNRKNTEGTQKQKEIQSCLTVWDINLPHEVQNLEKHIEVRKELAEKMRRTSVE
Experimental: as §1, §2

LRRK2 wild-type [4] = target: T2, LRRK2 wild-type; assay: TR-FRET cellular assay for LRRK2 Ser935 phosphorylation, SH-SY5Y cells, BacMam LRRK2-GFP wild-type; assay type: cell-based; design: This high-throughput assay utilizes cells expressing full-length human LRRK2 with a C-terminal GFP tag (LRRK2-GFP); host or cells: SH-SY5Y cells transduced with BacMam; details: WT, +/- SD, three independent experiments, * = partial inhibition, read-out: IC50, TR-FRET cell-based assay for Ser935 phosphorylation of LRRK2
Experimental: as §1, §2

LRRK2 wild-type [5] = target: T2, LRRK2 wild-type; assay: TR-FRET cellular assay for LRRK2 Ser935 phosphorylation, U-2 OS cells, BacMam LRRK2-GFP wild-type; assay type: cell-based; design: This high-throughput assay utilizes cells expressing full-length human LRRK2 with a C-terminal GFP tag (LRRK2-GFP); host or cells: U-2 OS cells transduced with BacMam; details: WT, +/- SD, three independent experiments, * = partial inhibition, read-out: IC50, TR-FRET cell-based assay for Ser935 phosphorylation of LRRK2
Experimental: as §1, §2

LRRK2 G2019S [6] = target: T1, LRRK2 G2019S; assay: TR-FRET cellular assay for LRRK2 Ser935 phosphorylation, HEK293T cells, BacMam LRRK2-GFP G2019S; design: This high-throughput assay utilizes cells expressing full-length human LRRK2 with a C-terminal GFP tag (LRRK2-GFP); host or cells: HEK293T cells transduced with BacMam; details: +/- SD, three independent experiments, * = partial inhibition, read-out: IC50, TR-FRET cell-based assay for Ser935 phosphorylation of LRRK2
Experimental: as §1, §2

LRRK2 G2019S [7] = target: T1, LRRK2 G2019S; assay: TR-FRET cellular assay for LRRK2 Ser935 phosphorylation, SH-SY5Y cells, BacMam LRRK2-GFP G2019S (incl. Tocriscreen Mini library screen and follow-up); assay type: cell-based; design: This high-throughput assay utilizes cells expressing full-length human LRRK2 with a C-terminal GFP tag (LRRK2-GFP); host or cells: SH-SY5Y cells transduced with BacMam; details: for IC50: three independent experiments
Experimental: as §1, §2
40 nL of 10 mM Tocris library compounds in DMSO were dispensed into each well of the assay plate by the ECHO system. Equal volumes of DMSO were dispensed into the control wells. Cells were incubated with compounds for 90 to 120 min prior to cell lysis and detection as described above. The percent inhibition is calculated as: [(average emission ratios of DMSO control wells – average emission ratios of compound wells)/(average emission ratios of DMSO control wells – average emission ratios of LRRK2-IN-1 treated wells)] * 100. For the dose-response follow-up studies, fresh compound DMSO stock solutions were prepared from powder. […] Z′-factor value was calculated as: Z′-factor = 1 - [(3 × stdevLRRK2-IN-1+3 × stdevDMSO)/(avgDMSO – avgLRRK2-IN-1)]. The IC50 values reported in Table 2 are the averaged numbers from three independent experiments for both cellular and biochemical TR-FRET assays and one representative result of two independent experiments for the cytotoxicity assay.

T1 sequence (Q5S007 whole entry G2019S): as the sequence (Q5S007 whole entry) above, with G2019S counted along it

O=Nc1c(-c2c(O)[nH]c3ccccc23)[nH]c2ccccc12 [Indirubin-3-monoxime, Indirubin-3′-monoxime]
IC50 (in vitro): > 20 µM
IC50 (LRRK2 G2019S [1]; LRRK2 G2019S, ATP 134 µM (Km,app), LRRKtide substrate, three independent experiments, read-out: Biochemical LRRK2 assay IC50 +/- SD): > 10 µM
effect on LRRK2 activity in vitro (LRRK2 G2019S [1]; result in words): did not repress LRRK2 activity in vitro
IC50 (LRRK2 G2019S [2]): 1.93 µM
IC50 (LRRK2 wild-type [3]): 3.68 µM
IC50 (LRRK2 wild-type [4]): > 10 µM
IC50 (LRRK2 wild-type [5]): 3.78 µM
IC50 (LRRK2 G2019S [6]): 2.78 µM
IC50 (LRRK2 G2019S [7]; SH-SY5Y, G2019S, +/- SD, * = partial inhibition, read-out: IC50, TR-FRET cell-based assay for Ser935 phosphorylation of LRRK2): 6.15 µM
inhibition at 20 µM (LRRK2 G2019S [7]; SH-SY5Y, Tocriscreen Mini library screen, 20 µM, SH-SY5Y G2019S, relative to LRRK2-IN-1 control, read-out: %Inhibition Initial screen): 63.5%
Cellular TR-FRET Assay Max % Inhibition (LRRK2 G2019S [7]; dose-response follow-up, SH-SY5Y G2019S, 90 min): 64%
IC50 (LRRK2 G2019S [7]; dose-response follow-up, SH-SY5Y G2019S, read-out: Cellular TR-FRET Assay IC50 +/-SD): 4.4 µM
